According to PubChem BioAssay (NCI):
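96-well plates; 48 h exposure; 5 concentrations. Endpoints by linear interpolation between flanking doses. Not reached: highest tested concentration assigned. TGI is the concentration that stops growth completely.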

Assays:
Experiment in all cases: growth of human tumour cells (NCI), 48 h
SK-OV-3 ovarian = tested on: SK-OV-3 ovarian
SN12C renal = tested on: SN12C renal
HOP-92 NSCLC = tested on: HOP-92 NSCLC
HOP-62 NSCLC = tested on: HOP-62 NSCLC
RPMI-8226 leukemia = tested on: RPMI-8226 leukemia
SK-MEL-28 melanoma = tested on: SK-MEL-28 melanoma
PC-3 prostate = tested on: PC-3 prostate
NCI-H460 lung = tested on: NCI-H460 lung
A549 NSCLC = tested on: A549 NSCLC
SR leukemia = tested on: SR leukemia
UO-31 renal = tested on: UO-31 renal
HL-60(TB) leukemia = tested on: HL-60(TB) leukemia
ACHN renal = tested on: ACHN renal
DU-145 prostate = tested on: DU-145 prostate
SNB-75 CNS = tested on: SNB-75 CNS
MOLT-4 leukemia = tested on: MOLT-4 leukemia
NCI-H522 lung = tested on: NCI-H522 lung
SW-620 colon = tested on: SW-620 colon

Row | SMILES | TGI (SK-OV-3 ovarian) | TGI (SN12C renal) | TGI (HOP-92 NSCLC) | TGI (HOP-62 NSCLC) | TGI (RPMI-8226 leukemia) | TGI (SK-MEL-28 melanoma) | TGI (PC-3 prostate) | TGI (NCI-H460 lung) | TGI (A549 NSCLC) | TGI (SR leukemia) | TGI (UO-31 renal) | TGI (HL-60(TB) leukemia) | TGI (ACHN renal) | TGI (DU-145 prostate) | TGI (SNB-75 CNS) | TGI (MOLT-4 leukemia) | TGI (NCI-H522 lung) | TGI (SW-620 colon)
1 | OCC1OC(NCCNCCNC2OC(CO)C(O)C(O)C2O)C(O)C(O)C1O (stereo not drawn) | > 100 µM | > 100 µM | > 100 µM | > 100 µM | > 100 µM | > 100 µM | > 100 µM | > 100 µM | > 100 µM | > 100 µM | > 100 µM | > 100 µM | > 100 µM | > 100 µM | > 100 µM | > 100 µM | > 100 µM | > 100 µM
2 | CCN(CCCN(CC)C(=O)Nc1ccccc1)C(=O)Nc1ccccc1 | > 100 µM | > 100 µM | > 100 µM | > 100 µM | > 100 µM | > 100 µM | > 100 µM | > 100 µM | > 100 µM | > 100 µM | > 100 µM | > 100 µM | > 100 µM | > 100 µM | > 100 µM | > 100 µM | > 100 µM | > 100 µM
3 | Cc1ccc2cc3c(ccc4ccccc43)c3c2c1CC3 | > 100 µM | > 100 µM | > 100 µM | > 100 µM | > 100 µM | > 100 µM | > 100 µM | > 100 µM | > 100 µM | > 100 µM | > 100 µM | > 100 µM | > 100 µM | > 100 µM | > 100 µM | > 100 µM | > 100 µM | > 100 µM
4 | CCOP(=O)(OCC)/C(C#N)=C/c1ccc(-c2ccc(F)cc2F)o1 | 26.9 µM | 29.7 µM | 35.7 µM | 33.8 µM | 51.9 µM | 28.1 µM | 24.2 µM | 44.2 µM | 30.2 µM | 33.2 µM | 26.3 µM | 34.9 µM | 26.6 µM | 42.5 µM | 61.3 µM | 28.4 µM | 37 µM | 38.5 µM
5 | Cc1cnc(/N=c2\sc(C)cn2-c2ncc(C)s2)s1 | > 100 µM | > 100 µM | > 100 µM | > 100 µM | > 100 µM | > 100 µM | > 100 µM | > 100 µM | > 100 µM | > 100 µM | > 100 µM | > 100 µM | > 100 µM | > 100 µM | > 100 µM | > 100 µM | > 100 µM | > 100 µM
6 | CCCCCCCCCCCCCCCCCCNc1ccn(C2OC(CO)C(O)C2O)c(=O)n1 (stereo not drawn) | > 100 µM | > 100 µM | > 100 µM | > 100 µM | > 100 µM | > 100 µM | > 89.1 µM | > 100 µM | > 100 µM | > 100 µM | > 100 µM | 13.6 µM | > 100 µM | > 100 µM | > 100 µM | > 49.7 µM | > 100 µM | > 100 µM
